Molecules are shown by their SMILES. Entries after “also recorded” stand apart in the source; their conditions may differ.

The record followed here is patent US8920851B2, “Treatment of neurodegenerative diseases” (Velacor Therapeutics Pty Ltd, priority 2006, dated 2014).

In one test the test system is PHF-Tau. To be noted: 100 μM, 3 hours. How it is done:
In Vitro: 2×10^5 SY5Y or BE2M17 cells were plated to each well in a Falcon 6-well plate, either over coated or uncoated surfaces, and were allowed to attached overnight at 5% CO2/37° C. in complete growth medium (as described above). […] Cells were cultured over Falcon 6-well plates with surfaces coated either with 0.1% gelatin (Sigma, St Louis, Mo., USA), matrigel (cat #354234, BD, NSW, Australia) or 0.5 μg/ml fibronectin (Sigma, St Louis, Mo., USA).
Lysates preparation and Immunoblotting: Cells were washed twice in cold PBS and were lysed in 150 μl of cold RIPA buffer (containing 10% glycerol, 20 mM Tris, 137 mM NaCl, 0.1% SDS, 0.05% IGEPAL, 1% Triton X-100, 2 mM EDTA, 10% NaV, 2% NaF and 4× protease inhibitor), similarly, brain tissues were homogenised in dry ice using mortar and pestle, and lysed in 150 μl RIPA buffer. Samples were incubated on ice for 30 minutes, followed by centrifugation at 13000 rpm/ 10 minutes/ 4° C. Supernantant was collected and protein estimation was calculated for each sample by using BCA reagent (Sigma). Equal amounts of protein were loaded into each lane of a 10% SDS-polyacrylamide gel. The proteins were transferred onto PVDF (Millipore) membranes and were blocked with 5% skim milk blotto for 2 hours. After blocking the membrane, primary antibodies: either anti-human PHF-Tau (AT100 at 1:200, AT180 at 1:1000, and AT270 at 1:2500) or anti-human Tau (HT-7 at 1:1000) were incubated overnight at 4° C. in 5% skim milk blotto. Prior to secondary antibody incubation, membranes were rinsed 3× followed by 3×5 minutes washed in Tris-Buffered Saline with 0.01% Tween at room temperature. Followed by 1 hour incubation of secondary antibody polyclonal goat anti-mouse (Dako, Denmark) coupled to horse radish peroxidase (HRP) at 1:10000 dilutions in 5% skim milk blotto/room temperature. Membranes were washed as described above and were detected by using Amersham ECL western blotting detection reagent (Amersham Bioscience, Buckinghamshire, UK). Membranes were stripped using 2% SDS/β-Mercaptoethanol stripping buffer and reprobed for tubulin (Promega) to confirm protein loading.

The test system of another test is Akt. The experiment in a line: Akt phosphorylation by immunoblot in PC3 prostate carcinoma cells. Type of test: cell-based, human. To be noted: for Akt phosphorylation at Ser473: PC3 cells, 500 μM of each compound, various timepoints. As to the method: Such dephosphorylation may be the result of a direct inhibitory effect on the Akt protein itself, or alternatively, can be similarly achieved indirectly by boosting a negative regulator or inhibiting a positive regulator of Akt phosphorylation. […] PC3 prostate carcinoma cells were plated in 100 mm dishes, and when 70-80% confluent serum starved overnight. […] Cells were lysed, and the level of Akt Ser473 phosphorylation determined by immunoblot analysis with an activation specific antibody, and comparison made to levels of Akt protein expressed. To determine the effect on purified Akt, similarly plated but untreated PC3 cells were lysed in RIPA (minus phosphatase inhibitors), a stringent cell lysis buffer that minimizes maintenance of protein-protein complexes. […] The immunoprecipitated protein was then resolved and the level of activated Akt determined by immunoblot analysis as described above.
A reduction in net Akt activity could be achieved indirectly by either preventing the initial Akt phosphorylation, or alternatively, increasing Akt dephosphorylation [Kohn et. al. 1996]. […] Initially okadaic acid, a polyether toxin from red-tide algae (and causative agent of diarrhoetic shellfish poisoning) which inhibits the phospho-protein phosphatases PP1 and PP2A, two phosphatases implicated in the regulation of Akt dephosphorylation was used [Fernandez et al., 2002]. 5×10^5 PC3 prostate carcinoma cells were plated per well of a 6 well plate, allowed attach for 8 h, and then serum starved overnight. […] Lysed cells were resolved by SDS-PAGE, then probed for Akt phosphorylation at the Ser473 residue by immunoblot analysis with an antibody that specifically recognizes Akt when phosphorylated at this site, and comparison made with the total levels of Akt protein expressed (FIG. 2A).
This panel included tautamycin 500 nM (PP1), okadaic acid 500 nM (low dose PP2A>PP1), endothall A (PP2A) 100 μM, calyculin A 2 nM (low dose PP1>PP2A), calyculin A 10 nM (high dose inhibits PP1 and PP2A) and cyclosporine A 400 ng/ml (PP2B). […] Again, lysed cells were resolved by SDS-PAGE, then membranes probed for Akt phosphorylation at the Ser^473 residue by immunoblot analysis with an antibody that specifically recognizes Akt when phosphorylated at this site, and comparison made with the total levels of Akt protein expressed.
5×10^5 PC3 prostate carcinoma cells were plated per well in a 6-well plate, allowed to attach for 8 h, and then serum starved overnight. […] Equal amounts of whole cell lysates were resolved, and then subjected to immunoblot analysis to determine the level of phosphorylated Akt Ser^473. Comparison was then made with the total level of Akt protein expressed.
The phosphorylation status of Akt in whole cell lysates was determined using activation specific antibodies.
Other inorganic (sodium selenite, selenium dioxide, selenium sulphide and selenious acid) and organic (methylselenocysteine, selenocystine) selenium species were tested for their ability to affect Akt activation. All forms were dissolved in water with the exception of selenium sulphide which was solubilised in DMSO, and added to serum starved PC3 cells at a concentration of 500 μM for 1 hour, Whole cell lysates were then resolved, and the activation status of Akt determined by immunoblotting with an antibody that specifically recognizes Akt when phosphorylated at the Ser473 site, as well as the total level of Akt expression (pan Akt). To quantify the degree of Akt activation, immunoblots were digitalised, and the ratio of phosphorylated Akt to total Akt determined by densitometry.
In general terms: In western blotting, separated proteins are transferred to a membrane and probed.

Where [1] appears, read: BE2M17 cells on fibronectin, plastic (uncoated) and matrigel.
Setting [2] is: serum free PC3 cells, 500 μM, various times.

On to `O=[Se](=O)(O)O` [sodium selenate], for which the “PHF-Tau signal, clone AT100 (68 kDa)” value in the test with PHF-Tau (BE2M17 cells on fibronectin and matrigel) is listed as “PHF-Tau signal appeared to be reduced”. The “Tau expression, clone HT-7 (68, 64, 57 kDa)” value in the test on PHF-Tau (BE2M17 cells on fibronectin) was “appeared to reduce Tau expression”. Also, in the test on PHF-Tau (setting [1]), the “PHF-Tau signal, clone AT180 (71 and 67 kDa)” value is reported as “weaker PHF-Tau signal”; the “PHF-Tau signal, clone AT270 (66 and 63 kDa)” value is listed as “weaker PHF-Tau signal”. Also, the “PHF-Tau signal, clone AT270, cells on matrigel” value with PHF-Tau (BE2M17 cells on matrigel) was “only a slight difference between selenate treated and non-treated cells”. The “anti-Tau signal, clone HT-7 (60 kDa)” value in the test on PHF-Tau (SY5Y cells on fibronectin) was “weaker signal for anti-Tau”. Further, the “PHF-Tau signal, clone AT270 (70 kDa)” value in the test with PHF-Tau (SY5Y cells on gelatin and fibronectin) is “weaker PHF-Tau signal”. Moreover, in the test on Akt, the “Akt phosphorylation at Ser473” value is listed as “profoundly inhibited Akt phosphorylation”. Besides, the “Akt phosphorylation at Ser473” value in the test with Akt (listed as selenate) is recorded as “inhibited Akt phosphorylation”. The “Akt Ser473 phosphorylation” value in the test with Akt (intact serum starved PC3 cells, sodium selenate 500 μM, 1 h) is recorded as “profound reduction in Akt phosphorylation; also recorded: markedly reduces the chronically high levels of Akt phosphorylation; also recorded: marked decrease in the phosphorylation of Akt; also recorded: markedly reduced the level of Akt phosphorylation”. Besides, in the test on Akt (setting [2]), the “phosphorylation of Akt at Ser473 and Thre308, after the initial boost” value was “marked and prolonged deactivation”; the “total cellular Akt levels (pan Akt)” value is listed as “remained essentially unchanged”. Besides, the “phosphorylation of Akt at Ser473 and Thre308, early” value with Akt (serum free PC3 cells, 500 μM, within 10 minutes of exposure) is recorded as “transient boost in phosphorylation of Akt”. Also, in the test on Akt (serum starved PC3 cells, 500 μM, 1 hour, densitometry), the “Akt activation: ratio of phosphorylated Akt to total Akt versus control” value was “inhibits activation of Akt”. In the test on Akt (serum starved PC3 cells, 500 μM, 1 hour, densitometry, p<0.05), the “reduction in Akt phosphorylation at Ser473 compared to untreated cells” value is “greater than 80%”.
